In this data set the test system is human maximum recommended daily dose, FDA database. Briefly: DSSTox (FDAMDD) FDA Maximum (Recommended) Daily Dose Database. To be noted: stronger effect = lower value. The essentials:
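MRDD values come from clinical trials with daily oral dosing, usually for 3–12 months, for the average adult, in mg/day converted to mg/kg-bw/day assuming 60 kg. Antineoplastic mg/m2 doses are divided by 37. Activity score maps log10(1/MRDD mmol) onto 1–100.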

[1] abbreviates: TherapeuticCategory: antibacterial.
Where [2] appears, read: TherapeuticCategory: anticonvulsant.
The mark [3] stands for this setting: TherapeuticCategory: antihistaminic.
The mark [4] stands for this setting: TherapeuticCategory: cholinergic.
[5] abbreviates: TherapeuticCategory: glucocorticoid.
[6] abbreviates: TherapeuticCategory: antidepressant.
The mark [7] stands for this setting: TherapeuticCategory: anthelmintic.
Where [8] appears, read: TherapeuticCategory: skeletal muscle relaxant.
Where [9] appears, read: TherapeuticCategory: antihypertensive.

For `CCN(CC)CCOCCOC(=O)C1(c2ccccc2)CCCC1`, where the note is “TherapeuticCategory: antitussive”, the maximum recommended daily dose (mmol/kg-bw/day) was 0.006.

Regarding `CC(C)[C@@H](C)/C=C/[C@@H](C)[C@H]1CC[C@H]2/C(=C/C=C3\C[C@@H](O)CC[C@@H]3C)CCC[C@]12C`, the maximum recommended daily dose (mmol/kg-bw/day) (TherapeuticCategory: regulator) is 0.000105.

Take `CO[C@@]1(NC(=O)CSCC#N)C(=O)N2C(C(=O)O)=C(CSc3nnnn3C)CS[C@@H]21`: under setting [1], the maximum recommended daily dose (mmol/kg-bw/day) was 0.212.

Turning to `C=CCN1C(=O)C(CC(C)C)NC1=S` (stereo not given), the maximum recommended daily dose (mmol/kg-bw/day) under setting [2] is 0.188.

For the molecule `NC[C@@H]1O[C@H](O[C@H]2[C@@H](O)[C@H](O[C@@H]3[C@@H](O)[C@H](N)C[C@H](N)[C@H]3O[C@H]3O[C@H](CO)[C@@H](O)[C@H](O)[C@H]3N)O[C@@H]2CO)[C@H](N)[C@@H](O)[C@@H]1O`, the maximum recommended daily dose (mmol/kg-bw/day) (TherapeuticCategory: antibacterial, antiamebic) was 0.0569.

Consider `CN(C)CC[C@@H](c1ccc(Br)cc1)c1ccccn1`, for which the maximum recommended daily dose (mmol/kg-bw/day) under setting [3] is 0.00251.

`O=C(O)C(Cl)Cl`: under “TherapeuticCategory: caustic, keratolytic, topical astringent”, the maximum recommended daily dose (mmol/kg-bw/day) was 0.517.

Regarding `OCCOCCN1CCN(C(c2ccccc2)c2ccc(Cl)cc2)CC1` (stereo not given), the maximum recommended daily dose (mmol/kg-bw/day) (TherapeuticCategory: anxiolytic, antihistaminic) is 0.0178.

On to `CN1CCN(CCCN2c3ccccc3Sc3ccc(S(=O)(=O)N(C)C)cc32)CC1`, for which, for the setting “TherapeuticCategory: neuroleptic, antiemetic”, the maximum recommended daily dose (mmol/kg-bw/day) is 0.00149.

For the molecule `CC(C[N+](C)(C)C)OC(N)=O` (stereo not given), the maximum recommended daily dose (mmol/kg-bw/day) under setting [4] is 0.0169.

Take `C[C@H]1C[C@@H]2[C@H]([C@@H](O)C[C@@]3(C)[C@H]2CC[C@]3(O)C(=O)COC(=O)CCCCCCC(=O)N(C)CCS(=O)(=O)O)[C@@]2(C)C=CC(=O)C=C12`: the maximum recommended daily dose (mmol/kg-bw/day) under setting [5] was 0.0061.

On to `CN1Cc2c(N)cccc2C(c2ccccc2)C1` (stereo not given), for which the maximum recommended daily dose (mmol/kg-bw/day) under setting [6] was 0.014.

For `Oc1ccc(Cl)cc1Cc1cc(Cl)ccc1O`, the maximum recommended daily dose (mmol/kg-bw/day) under setting [7] is 0.372.

Consider `NC(N)=Nc1nc(CSCC/C(N)=N/S(N)(=O)=O)cs1`, for which, under “TherapeuticCategory: antiulcerative”, the maximum recommended daily dose (mmol/kg-bw/day) is 0.00198.

Consider `CN1C(=O)CN=C(c2ccccc2)c2cc(Cl)ccc21`, for which, for the setting “TherapeuticCategory: anxiolytic, skeletal muscle relaxant”, the maximum recommended daily dose (mmol/kg-bw/day) was 0.00234.

Take `CCN(CC)C(C)C(=O)c1ccccc1` (stereo not given): where the note is “TherapeuticCategory: anorexic”, the maximum recommended daily dose (mmol/kg-bw/day) was 0.00609.

With `Cc1onc(-c2c(F)cccc2Cl)c1C(=O)N[C@@H]1C(=O)N2[C@@H]1SC(C)(C)[C@@H]2C(=O)O`, under setting [1], the maximum recommended daily dose (mmol/kg-bw/day) is 0.147.

For the molecule `CC(=O)NS(=O)(=O)c1cc(N)ccc1S(=O)(=O)c1ccc(N)cc1`, under setting [1], the maximum recommended daily dose (mmol/kg-bw/day) was 0.17.

`COc1ccc2c(c1OC)CN1CCc3cc4c(cc3C1C2)OCO4` (stereo not given): the maximum recommended daily dose (mmol/kg-bw/day) (TherapeuticCategory: Ca channel blocker) was 0.0981.

Turning to `CN1CC[C@]23c4c5ccc(O)c4O[C@H]2C(=O)CC[C@H]3[C@H]1C5`, the maximum recommended daily dose (mmol/kg-bw/day) (TherapeuticCategory: analgesic) was 0.0014.

Take `CCCCC[C@](C)(O)/C=C/[C@@H]1[C@@H](C/C=C\CCCC(=O)O)[C@@H](O)C[C@H]1O`: the maximum recommended daily dose (mmol/kg-bw/day) (TherapeuticCategory: oxytocic) was 0.000543.

For `CC(NC(C)(C)C)C(=O)c1cccc(Cl)c1` (stereo not given), the maximum recommended daily dose (mmol/kg-bw/day) under setting [6] is 0.0313.

For the molecule `Cc1ccc(-c2cc(C(F)(F)F)nn2-c2ccc(S(N)(=O)=O)cc2)cc1`, the maximum recommended daily dose (mmol/kg-bw/day) (TherapeuticCategory: anti inflammatory, antiarthritic) was 0.0175.

In the case of `Cc1c(-c2ccccc2)n(/N=N/n2c(-c3ccccc3)c(C)[n+]3ccccc23)c2cccc[n+]12`, the maximum recommended daily dose (mmol/kg-bw/day) under setting [8] was 0.00165.

For the molecule `NC(=O)c1cccnc1`, the maximum recommended daily dose (mmol/kg-bw/day) (TherapeuticCategory: vitamin) is 0.0682.

For `OC[C@@H](O)[C@@H](O)[C@H](O)[C@@H](O)CO`, the maximum recommended daily dose (mmol/kg-bw/day) (TherapeuticCategory: cathartic) was 4.57.

As to `CC(C)C[C@H](N)C(=O)O`, the maximum recommended daily dose (mmol/kg-bw/day) (TherapeuticCategory: nutrient) is 0.762.

Consider `CC(C)NNC(=O)c1ccncc1`, for which the maximum recommended daily dose (mmol/kg-bw/day) (TherapeuticCategory: monoamine oxidase inhibitor, antidepressant) was 0.0139.

Take `CC(Oc1c(Cl)cccc1Cl)C1=NCCN1` (stereo not given): the maximum recommended daily dose (mmol/kg-bw/day) under setting [9] is 0.000154.

On to `CC(N)C12CC3CC(CC(C3)C1)C2` (stereo not given), for which, where the note is “TherapeuticCategory: antiviral”, the maximum recommended daily dose (mmol/kg-bw/day) is 0.0186.

As for `CN(C)CCC(c1ccc(Br)cc1)c1ccccn1` (stereo not given), the maximum recommended daily dose (mmol/kg-bw/day) under setting [3] was 0.00125.

For `Cc1cc2c(C(C)C)c(O)c(O)c(C=O)c2c(O)c1-c1c(C)cc2c(C(C)C)c(O)c(O)c(C=O)c2c1O`, the maximum recommended daily dose (mmol/kg-bw/day) (TherapeuticCategory: none) is 0.000642.

On to `CCCCN(CCCC)CCC(O)c1cc2c(Cl)cc(Cl)cc2c2cc(C(F)(F)F)ccc12` (stereo not given), for which the maximum recommended daily dose (mmol/kg-bw/day) (TherapeuticCategory: antimalarial) was 0.05.

Consider `CN(C)CCCOC1(Cc2ccccc2)CCCCCC1`, for which the maximum recommended daily dose (mmol/kg-bw/day) (TherapeuticCategory: vasodilator) is 0.0345.

Take `CC(C)(CO)C(O)C(=O)NCCCO` (stereo not given): the maximum recommended daily dose (mmol/kg-bw/day) under setting [4] is 0.0406.

In the case of `CC1=C(/C=C/C(C)=C/C=C/C(C)=C/CO)C(C)(C)CCC1`, the maximum recommended daily dose (mmol/kg-bw/day) (TherapeuticCategory: antixerophthalmic vitamin) is 0.0032.

On to `CC[C@@H](CO)NC(=O)[C@@H]1C=C2c3cccc4c3c(cn4C)C[C@H]2N(C)C1`, for which the maximum recommended daily dose (mmol/kg-bw/day) (TherapeuticCategory: antimigraine) is 0.000283.

For the molecule `COc1ncnc(NS(=O)(=O)c2ccc(N)cc2)c1OC`, the maximum recommended daily dose (mmol/kg-bw/day) under setting [1] is 0.0806.

Consider `CN1CCCN=C1/C=C/c1cccs1`, for which the maximum recommended daily dose (mmol/kg-bw/day) under setting [7] is 0.0969.

In the case of `COC(=O)[C@H]1[C@H]2C[C@@H]3c4[nH]c5cc(OC)ccc5c4CCN3C[C@H]2C[C@@H](OC(=O)c2cc(OC)c(OC)c(OC)c2)[C@@H]1OC`, under setting [9], the maximum recommended daily dose (mmol/kg-bw/day) is 1.64e-05.

In the case of `COc1cc(C[C@@H]2c3c(cc(OC)c(OC)c3OC)CC[N@@+]2(C)CCCOC(=O)CCC(=O)OCCC[N@@+]2(C)CCc3cc(OC)c(OC)c(OC)c3[C@@H]2Cc2cc(OC)c(OC)c(OC)c2)cc(OC)c1OC`, where the note is “TherapeuticCategory: skeletal muscle relaxant, neuromuscular blocker”, the maximum recommended daily dose (mmol/kg-bw/day) was 4.52e-05.

With `C[C@]12CCC(=O)C=C1CC[C@@H]1[C@@H]2C(=O)C[C@@]2(C)[C@H]1CC[C@]2(O)C(=O)CO`, under setting [5], the maximum recommended daily dose (mmol/kg-bw/day) was 0.0139.

As for `CCSc1ccc2c(c1)N(CCCN1CCN(C)CC1)c1ccccc1S2`, the maximum recommended daily dose (mmol/kg-bw/day) (TherapeuticCategory: antiemetic) was 0.00125.

`CN1CCN2c3ccccc3Cc3ccccc3C2C1` (stereo not given): the maximum recommended daily dose (mmol/kg-bw/day) under setting [6] was 0.00567.

Turning to `CCN(CC)CCOC(=O)C(O)(c1ccccc1)c1ccccc1`, the maximum recommended daily dose (mmol/kg-bw/day) (TherapeuticCategory: antidepressant, anticholinergic) was 0.000458.

With `CC(C)NCC1CCc2cc(CO)c([N+](=O)[O-])cc2N1` (stereo not given), the maximum recommended daily dose (mmol/kg-bw/day) under setting [7] is 0.215.

Take `CCCC(C)(COC(N)=O)COC(N)=O`: the maximum recommended daily dose (mmol/kg-bw/day) (TherapeuticCategory: anxiolytic) is 0.183.

For the molecule `CC(=O)O[C@H]1C[C@H](O[C@H]2[C@@H](O)C[C@H](O[C@H]3[C@@H](O)C[C@H](O[C@H]4CC[C@@]5(C)[C@H](CC[C@@H]6[C@@H]5CC[C@]5(C)[C@@H](C7=CC(=O)OC7)CC[C@]65O)C4)O[C@@H]3C)O[C@@H]2C)O[C@H](C)[C@H]1O`, where the note is “TherapeuticCategory: cardiotonic”, the maximum recommended daily dose (mmol/kg-bw/day) is 4.13e-06.

Consider `CC(C)(O)C(C)(O)c1ccc(Cl)cc1` (stereo not given), for which the maximum recommended daily dose (mmol/kg-bw/day) (TherapeuticCategory: anxiolytic, anticonvulsant) is 0.0932.

On to `CCCc1c2oc(C(=O)O)cc(=O)c2cc2c(=O)cc(C(=O)O)n(CC)c12`, for which the maximum recommended daily dose (mmol/kg-bw/day) (TherapeuticCategory: antiallergic, antiasthmatic) was 0.000627.

With `COc1cc2c3cc1Oc1cc(ccc1O)C[C@@H]1c4c(cc(OC)c(O)c4Oc4ccc(cc4)C[C@@H]3N(C)CC2)CC[N+]1(C)C`, the maximum recommended daily dose (mmol/kg-bw/day) (TherapeuticCategory: skeletal muscle relaxant, diagnostic aid) is 0.000979.

`Nc1nnc(-c2cccc(Cl)c2Cl)c(N)n1`: under setting [2], the maximum recommended daily dose (mmol/kg-bw/day) is 0.026.

With `C=C1CC[C@@]2(O)[C@H]3Cc4ccc(O)c5c4[C@@]2(CCN3CC2CC2)[C@H]1O5`, the maximum recommended daily dose (mmol/kg-bw/day) (TherapeuticCategory: narcotic antagonist) is 0.00245.

Turning to `C[C@]12COC(=O)C[C@@H]1CC[C@@H]1[C@@H]2CC[C@@]2(C)[C@H]1CC[C@]2(C)O`, the maximum recommended daily dose (mmol/kg-bw/day) (TherapeuticCategory: androgen) was 0.00109.

On to `CNC(C)[C@@H]1CC[C@@H](N)[C@@H](O[C@H]2[C@H](O)[C@@H](O[C@H]3OC[C@](C)(O)[C@H](NC)[C@H]3O)[C@H](N)C[C@@H]2N)O1` (stereo not given in full), for which, under setting [1], the maximum recommended daily dose (mmol/kg-bw/day) is 0.00628.

Take `CCN1/C(=C/C=C/C=C/c2sc3ccccc3[n+]2CC)Sc2ccccc21`: the maximum recommended daily dose (mmol/kg-bw/day) under setting [7] is 0.00642.

As to `C[C@]12C=CC(=O)C=C1CC[C@@H]1[C@@H]2[C@@H](O)C[C@@]2(C)[C@H]1CC[C@]2(O)C(=O)COC(=O)CCCc1ccc(N(CCCl)CCCl)cc1`, under “TherapeuticCategory: antineoplastic”, the maximum recommended daily dose (mmol/kg-bw/day) was 0.00515.

Regarding `CCn1cc(C(=O)O)c(=O)c2cc3c(cc21)OCO3`, the maximum recommended daily dose (mmol/kg-bw/day) under setting [1] was 0.0957.

As to `O=C1C(=O)c2ccccc2C(O)=C1C1CCC(c2ccc(Cl)cc2)CC1` (stereo not given), the maximum recommended daily dose (mmol/kg-bw/day) (TherapeuticCategory: antiprotozoal, antimalarial, antifungal) was 0.102.

For `CCC1(c2ccc(N)cc2)CCC(=O)NC1=O` (stereo not given), under setting [2], the maximum recommended daily dose (mmol/kg-bw/day) is 0.0719.

Regarding `O=C1CN(/N=C/c2ccc(-c3ccc([N+](=O)[O-])cc3)o2)C(=O)N1`, the maximum recommended daily dose (mmol/kg-bw/day) under setting [8] is 0.0212.

In the case of `COCC(=O)Nc1c(I)c(C(=O)NCC(O)CO)c(I)c(C(=O)N(C)CC(O)CO)c1I` (stereo not given), the maximum recommended daily dose (mmol/kg-bw/day) (TherapeuticCategory: diagnostic aid) is 0.126.

`CC[C@@H](CO)NCCN[C@@H](CC)CO`: the maximum recommended daily dose (mmol/kg-bw/day) under setting [1] is 0.122.

For `O=C1NC(=O)[C@@]2(CCOc3ccc(F)cc32)N1`, the maximum recommended daily dose (mmol/kg-bw/day) (TherapeuticCategory: none) was 0.0177.

As to `CCN(CC)CCOc1ccc(/C(=C(\Cl)c2ccccc2)c2ccccc2)cc1`, the maximum recommended daily dose (mmol/kg-bw/day) (TherapeuticCategory: gonad stimulating) was 0.00411.
